Experimental data as given in PubChem BioAssay AID1745844 (Carcinogenic Potency Database (CPDB), 2022).
Active and inactive are the calls of the source. The rule behind the calls is not given here.

Test system: rodent lifetime carcinogenesis bioassay, tumor incidence TD50
Assay: chronic cancer bioassays in animals – CPDB, compiled studies (AID 1745844)

CN(C)CCOc1ccc(/C(=C(/CCCl)c2ccccc2)c2ccccc2)cc1
inactive: carcinogen call (rat, strain Charles River CD (Sprague-Dawley), females, by gavage, site: liver, lesion: hepatocellular adenoma, dosed 52 weeks, study length 52 weeks) negative | carcinogen call (rat, strain Charles River CD (Sprague-Dawley), females, by gavage, site: liver, lesion: hepatocellular adenoma, dosed 52 weeks, study length 65 weeks) negative | carcinogen call (rat, strain Charles River CD (Sprague-Dawley), females, by gavage, site: liver, lesion: hepatocellular carcinoma, dosed 52 weeks, study length 52 weeks) negative | carcinogen call (rat, strain Charles River CD (Sprague-Dawley), females, by gavage, site: liver, lesion: hepatocellular carcinoma, dosed 52 weeks, study length 65 weeks) negative | carcinogen call (rat, strain Sprague-Dawley, females, by gavage, site: liver, lesion: one or several types, types not named, dosed 52 weeks, study length 52 weeks) negative | carcinogen call (rat, strain Sprague-Dawley, females, by gavage, site: liver, lesion: one or several types, types not named, dosed 52 weeks, study length 65 weeks) negative | carcinogen call (rat, strain Sprague-Dawley, females, by gavage, site: liver, lesion: several types, types named in the paper, dosed 52 weeks, study length 52 weeks) negative | carcinogen call (rat, strain Sprague-Dawley, females, by gavage, site: liver, lesion: several types, types named in the paper, dosed 52 weeks, study length 65 weeks) negative | TD50 (rat, strain Sprague-Dawley, females, in feed, site: liver, lesion: hepatocellular adenoma, dosed 104 weeks, study length 104 weeks) 344 mg/kg/day | carcinogen call (rat, strain Sprague-Dawley, females, in feed, site: liver, lesion: hepatocellular carcinoma, dosed 104 weeks, study length 104 weeks) negative | carcinogen call (rat, strain Sprague-Dawley, females, in feed, site: mammary gland, lesion: one or several types, types not named, dosed 104 weeks, study length 104 weeks) negative | carcinogen call (rat, strain Sprague-Dawley, females, in feed, site: pituitary gland, lesion: one or several types, types not named, dosed 104 weeks, study length 104 weeks) negative | carcinogen call (rat, strain Sprague-Dawley, males, in feed, site: liver, lesion: hepatocellular adenoma, dosed 104 weeks, study length 104 weeks) negative | TD50 (rat, strain Sprague-Dawley, males, in feed, site: liver, lesion: hepatocellular carcinoma, dosed 104 weeks, study length 104 weeks) 1040 mg/kg/day | carcinogen call (rat, strain Sprague-Dawley, males, in feed, site: mammary gland, lesion: one or several types, types not named, dosed 104 weeks, study length 104 weeks) negative | carcinogen call (rat, strain Sprague-Dawley, males, in feed, site: pituitary gland, lesion: one or several types, types not named, dosed 104 weeks, study length 104 weeks) negative | carcinogen call (rat, strain Sprague-Dawley, males, in feed, site: testis, lesion: one or several types, types not named, dosed 104 weeks, study length 104 weeks) negative

CCOc1ccc2c(c1)C(C)=CC(C)(C)N2
inactive: carcinogen call (rat, strain F344/DuCrj, males, in feed, site: esophagus, lesion: one or several types, types not named, dosed 52 weeks, study length 52 weeks) negative | carcinogen call (rat, strain F344/DuCrj, males, in feed, site: forestomach, lesion: one or several types, types not named, dosed 52 weeks, study length 52 weeks) negative | carcinogen call (rat, strain F344/DuCrj, males, in feed, site: liver, lesion: one or several types, types not named, dosed 52 weeks, study length 52 weeks) negative | carcinogen call (rat, strain Fischer 344, females, in feed, site: kidney, lesion: one or several types, types not named, dosed 58 weeks, study length 58 weeks) negative | carcinogen call (rat, strain Fischer 344, females, in feed, site: kidney, lesion: one or several types, types not named, dosed 78 weeks, study length 78 weeks) negative | carcinogen call (rat, strain Fischer 344, males, in feed, site: kidney, lesion: one or several types, types not named, dosed 58 weeks, study length 58 weeks) negative | carcinogen call (rat, strain Fischer 344, males, in feed, site: kidney, lesion: one or several types, types not named, dosed 78 weeks, study length 78 weeks) negative

O=C(O)Cc1c[nH]c2ccccc12
inactive: carcinogen call (mouse, strain B6AKF1, females, oral dosing, site: any site (literature study), lesion: several types, types named in the paper, dosed 76 weeks, study length 76 weeks) negative | carcinogen call (mouse, strain B6AKF1, females, oral dosing, site: liver, lesion: hepatoma, dosed 76 weeks, study length 76 weeks) negative | carcinogen call (mouse, strain B6AKF1, females, oral dosing, site: lung, lesion: adenoma, dosed 76 weeks, study length 76 weeks) negative | carcinogen call (mouse, strain B6AKF1, males, oral dosing, site: any site (literature study), lesion: several types, types named in the paper, dosed 76 weeks, study length 76 weeks) negative | carcinogen call (mouse, strain B6AKF1, males, oral dosing, site: liver, lesion: hepatoma, dosed 76 weeks, study length 76 weeks) negative | carcinogen call (mouse, strain B6AKF1, males, oral dosing, site: lung, lesion: adenoma, dosed 76 weeks, study length 76 weeks) negative | TD50 (mouse, strain B6C3F1, females, oral dosing, site: any site (literature study), lesion: several types, types named in the paper, dosed 76 weeks, study length 76 weeks) 538 mg/kg/day | carcinogen call (mouse, strain B6C3F1, females, oral dosing, site: liver, lesion: hepatoma, dosed 76 weeks, study length 76 weeks) negative | TD50 (mouse, strain B6C3F1, females, oral dosing, site: lung, lesion: adenoma, dosed 76 weeks, study length 76 weeks) 538 mg/kg/day | TD50 (mouse, strain B6C3F1, males, oral dosing, site: any site (literature study), lesion: several types, types named in the paper, dosed 76 weeks, study length 76 weeks) 40.3 mg/kg/day | TD50 (mouse, strain B6C3F1, males, oral dosing, site: liver, lesion: hepatoma, dosed 76 weeks, study length 76 weeks) 113 mg/kg/day | TD50 (mouse, strain B6C3F1, males, oral dosing, site: lung, lesion: adenoma, dosed 76 weeks, study length 76 weeks) 500 mg/kg/day
